Data set [1] relates to Puccinia recondita f. sp. tritici. Nature of the data set: Fungicidal activity against Puccinia recondita f. sp. tritici, wheat, leaf disc preventative (brown rust). The class given is in vivo. Conditions: foliar, wheat leaf segments, preventative (inoculated 1 day after application), 7-9 days after application, compared to untreated control. In outline: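 Wheat cv. Kanzler leaf segments on water agar sprayed with compound (DMSO stock diluted in water), then inoculated with spore suspension 1 day later. Incubated at 19 °C, 75% rh, 12 h light/12 h dark; percent disease control versus untreated scored at 7-9 days after application.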

A further data set has as its system Phakopsora pachyrhizi. Nature of the data set: Fungicidal activity against Phakopsora pachyrhizi, soybean, leaf disc preventative (Asian soybean rust). The format is in vivo. Conditions: foliar, 288 h, 12-14 days after application, compared to untreated control. In outline:
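Soybean leaf discs on water agar were sprayed with compound diluted in water, then inoculated one day later with a spore suspension on the lower leaf surface. After 24-36 h dark at 20 °C, 75% rh, discs were held at 20 °C, 12 h light/day. Percent disease control versus untreated assessed 12-14 days post-application.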

In data set [2] the test system is Glomerella lagenarium (Colletotrichum lagenarium). Briefly: Fungicidal activity against Glomerella lagenarium (Colletotrichum lagenarium), liquid culture, cucumber, preventative (anthracnose). Conditions: Colletotrichum orbiculare, liquid culture (PDB), growth inhibition measured photometrically 3-4 days after application, compared to untreated control. The class given is cell-based. In outline:
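Glomerella lagenarium conidia in potato dextrose broth were exposed in 96-well plates to test compound diluted from DMSO stock with 0.025% Tween20 and incubated at 24 °C. Growth inhibition was read photometrically 3–4 days after application, as percent activity relative to untreated check.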

For data set [3], the system named is Puccinia recondita f. sp. tritici. Nature of the data set: Fungicidal activity against Puccinia recondita f. sp. tritici, wheat, leaf disc curative (brown rust). The format is in vivo. Conditions: foliar, 144 h, wheat leaf segments, curative (applied 1 day after inoculation), 6-8 days after application, compared to untreated control. In outline: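 Wheat cv. Kanzler leaf segments on agar, inoculated with brown rust spores and kept dark at 19 °C, 75% rh; formulated compound sprayed 1 day after inoculation (curative). Incubated 19 °C, 75% rh, 12 h light/dark; percent disease control vs untreated scored 6–8 days after application.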

The molecule `O=C1CCON1Cc1ccc(-c2noc(C(F)(F)F)n2)cc1` [Compound A-5, 2-[[4-[5-(trifluoromethyl)-1,2,4-oxadiazol-3-yl]phenyl]methyl]isoxazolidin-3-one] had a melting point of 54 to 58 °C. In data set [1], the pest or weed control at 200 ppm was not below 80%. Further, in the data set with Phakopsora pachyrhizi, the pest or weed control at 200 ppm is not below 80%. The inhibition of growth at 20 ppm in data set [2] was not below 80%. The molecule further displayed a pest or weed control at 200 ppm in data set [3] not below 80%.

For `CC1CCN(Cc2ccc(-c3noc(C(F)(F)F)n3)cc2)C1=O` (centres unmarked) [Compound A-7, 3-methyl-1-[[4-[5-(trifluoromethyl)-1,2,4-oxadiazol-3-yl]phenyl]methyl]pyrrolidin-2-one], the melting point was in the range of 83 to 88 °C. In addition, in data set [1], the pest or weed control at 200 ppm was not below 80%. Moreover, the pest or weed control at 200 ppm with Phakopsora pachyrhizi is not below 80%. In data set [2], this molecule registered an inhibition of growth at 20 ppm not below 80%. The molecule also came in with a pest or weed control at 200 ppm in data set [3] not below 80%.

With `O=C1C2C=CC(C2)N1Cc1ccc(-c2noc(C(F)(F)F)n2)cc1` (centres unmarked) [Compound A-9, 3-[[4-[5-(trifluoromethyl)-1,2,4-oxadiazol-3-yl]phenyl]methyl]-3-azabicyclo[2.2.1]hept-5-en-2-one], the melting point fell in the range of 50 to 53 °C. Further, the pest or weed control at 200 ppm in data set [1] is not below 80%. In addition, in the data set on Phakopsora pachyrhizi, the pest or weed control at 200 ppm was not below 80%. Also, the inhibition of growth at 20 ppm in data set [2] is not below 80%. Besides, the pest or weed control at 200 ppm in data set [3] was not below 80%.

Molecule `O=C1CCCN1Cc1ccc(-c2noc(C(F)(F)F)n2)cc1F` [Compound A-22, 1-[[2-fluoro-4-[5-(trifluoromethyl)-1,2,4-oxadiazol-3-yl]phenyl]methyl]pyrrolidin-2-one] had a melting point of 55 to 60 °C. The pest or weed control at 200 ppm in data set [1] is not below 80%. Also, the pest or weed control at 200 ppm in the data set on Phakopsora pachyrhizi is not below 80%. In data set [2], this molecule displayed an inhibition of growth at 20 ppm not below 80%. The molecule further displayed a pest or weed control at 200 ppm in data set [3] not below 80%.

The molecule `CN1CC(=O)N(Cc2ccc(-c3noc(C(F)(F)F)n3)cc2)CC1=O` [Compound A-26, 1-methyl-4-[[4-[5-(trifluoromethyl)-1,2,4-oxadiazol-3-yl]phenyl]methyl]piperazine-2,5-dione] gave a melting point of 134 to 142 °C. The pest or weed control at 200 ppm in data set [1] was not below 80%. The molecule further displayed a pest or weed control at 200 ppm in the data set on Phakopsora pachyrhizi not below 80%. This molecule also yielded an inhibition of growth at 20 ppm in data set [2] not below 80%. In data set [3], this molecule registered a pest or weed control at 200 ppm not below 80%.

Molecule `CNC(=O)N1CCN(Cc2ccc(-c3noc(C(F)(F)F)n3)cc2)C(=O)C1` [Compound A-33, N-methyl-3-oxo-4-[[4-[5-(trifluoromethyl)-1,2,4-oxadiazol-3-yl]phenyl]methyl]piperazine-1-carboxamide] yielded a melting point of 114 to 118 °C. In data set [1], this molecule showed a pest or weed control at 200 ppm not below 80%. The same molecule gave a pest or weed control at 200 ppm in the data set with Phakopsora pachyrhizi not below 80%. In data set [2], this molecule came in with an inhibition of growth at 20 ppm not below 80%. This molecule gave a pest or weed control at 200 ppm in data set [3] not below 80%.

Turning to `CN(C)C(=O)N1CCN(Cc2ccc(-c3noc(C(F)(F)F)n3)cc2)C(=O)C1` [Compound A-34, N,N-dimethyl-3-oxo-4-[[4-[5-(trifluoromethyl)-1,2,4-oxadiazol-3-yl]phenyl]methyl]piperazine-1-carboxamide], the melting point is 111 to 114 °C. In data set [1], this molecule showed a pest or weed control at 200 ppm not below 80%. In the data set with Phakopsora pachyrhizi, this molecule yielded a pest or weed control at 200 ppm not below 80%. This molecule yielded an inhibition of growth at 20 ppm in data set [2] not below 80%. Further, the pest or weed control at 200 ppm in data set [3] was not below 80%.

As to `COCCNC(=O)N1CCN(Cc2ccc(-c3noc(C(F)(F)F)n3)cc2)C(=O)C1` [Compound A-38, N-(2-methoxyethyl)-3-oxo-4-[[4-[5-(trifluoromethyl)-1,2,4-oxadiazol-3-yl]phenyl]methyl]piperazine-1-carboxamide], the melting point is 120 to 128 °C. Further, the pest or weed control at 200 ppm in data set [1] is not below 80%. The molecule further gave a pest or weed control at 200 ppm in the data set on Phakopsora pachyrhizi not below 80%. The molecule also displayed a pest or weed control at 200 ppm in data set [3] not below 80%.

Consider `CS(=O)(=O)N1CCN(Cc2ccc(-c3noc(C(F)(F)F)n3)cc2)C(=O)C1` [Compound A-41, 4-methylsulfonyl-1-[[4-[5-(trifluoromethyl)-1,2,4-oxadiazol-3-yl]phenyl]methyl]piperazin-2-one], for which the melting point fell in the range of 155 to 160 °C. Besides, in data set [1], the pest or weed control at 200 ppm was not below 80%. Moreover, the pest or weed control at 200 ppm with Phakopsora pachyrhizi is not below 80%. In data set [2], this molecule returned an inhibition of growth at 20 ppm not below 80%. In data set [3], this molecule gave a pest or weed control at 200 ppm not below 80%.

Consider `O=C1CCCC(=O)N1Cc1ccc(-c2noc(C(F)(F)F)n2)cc1` [Compound A-49, 1-[[4-[5-(trifluoromethyl)-1,2,4-oxadiazol-3-yl]phenyl]methyl]piperidine-2,6-dione], for which the melting point is 104 to 108 °C. Moreover, the pest or weed control at 200 ppm in data set [1] is not below 80%. The molecule further showed a pest or weed control at 200 ppm in the data set on Phakopsora pachyrhizi not below 80%. In data set [2], this molecule came in with an inhibition of growth at 20 ppm not below 80%. Moreover, the pest or weed control at 200 ppm in data set [3] is not below 80%.

The molecule `O=C1CCC(=O)N1Cc1ccc(-c2noc(C(F)(F)F)n2)cc1` [Compound A-51, 1-[[4-[5-(trifluoromethyl)-1,2,4-oxadiazol-3-yl]phenyl]methyl]pyrrolidine-2,5-dione] gave a melting point of 113 to 117 °C. The pest or weed control at 200 ppm in data set [1] is not below 80%. In the data set with Phakopsora pachyrhizi, this molecule had a pest or weed control at 200 ppm not below 80%. In addition, the inhibition of growth at 20 ppm in data set [2] was not below 80%. The molecule further displayed a pest or weed control at 200 ppm in data set [3] not below 80%.

As to `CC1(C)CCCN(Cc2ccc(-c3noc(C(F)(F)F)n3)c(F)c2)C1=O` [Compound A-54, 1-[[3-fluoro-4-[5-(trifluoromethyl)-1,2,4-oxadiazol-3-yl]phenyl]methyl]-3,3-dimethyl-piperidin-2-one], the melting point fell in the range of 69 to 73 °C. Also, in data set [1], the pest or weed control at 200 ppm was not below 80%. This molecule came in with a pest or weed control at 200 ppm with Phakopsora pachyrhizi not below 80%. In addition, the inhibition of growth at 20 ppm in data set [2] is not below 80%. The molecule also had a pest or weed control at 200 ppm in data set [3] not below 80%.

Consider `CC(=O)N1CC(=O)N(Cc2ccc(-c3noc(C(F)(F)F)n3)cc2)C(=O)C1` [Compound A-55, 4-acetyl-1-[[4-[5-(trifluoromethyl)-1,2,4-oxadiazol-3-yl]phenyl]methyl]piperazine-2,6-dione], for which the melting point was in the range of 111 to 114 °C. This molecule registered a pest or weed control at 200 ppm in data set [1] not below 80%. In addition, the pest or weed control at 200 ppm with Phakopsora pachyrhizi was not below 80%. The molecule also gave an inhibition of growth at 20 ppm in data set [2] not below 80%. The pest or weed control at 200 ppm in data set [3] is not below 80%.

For `CN(C)C(=O)N1CC(=O)N(Cc2ccc(-c3noc(C(F)(F)F)n3)cc2)C(=O)C1` [Compound A-56, N,N-dimethyl-3,5-dioxo-4-[[4-[5-(trifluoromethyl)-1,2,4-oxadiazol-3-yl]phenyl]methyl]piperazine-1-carboxamide], the melting point is 138 to 141 °C. Moreover, the pest or weed control at 200 ppm in data set [1] is not below 80%. The molecule also yielded a pest or weed control at 200 ppm with Phakopsora pachyrhizi not below 80%. Also, in data set [2], the inhibition of growth at 20 ppm is not below 80%. Further, in data set [3], the pest or weed control at 200 ppm was not below 80%.

`O=C1CNC(=O)N1Cc1ccc(-c2noc(C(F)(F)F)n2)cc1` [Compound A-65, 3-[[4-[5-(trifluoromethyl)-1,2,4-oxadiazol-3-yl]phenyl]methyl]imidazolidine-2,4-dione] came in with a melting point of 200 to 203 °C. For the same molecule, the pest or weed control at 200 ppm in data set [1] was not below 80%. The molecule also had a pest or weed control at 200 ppm in the data set with Phakopsora pachyrhizi not below 80%. Also, in data set [2], the inhibition of growth at 20 ppm was not below 80%.

As for `O=C1CCON1Cc1c(F)cc(-c2noc(C(F)(F)F)n2)cc1F` [Compound A-67, 2-[[2,6-difluoro-4-[5-(trifluoromethyl)-1,2,4-oxadiazol-3-yl]phenyl]methyl]isoxazolidin-3-one], the melting point fell in the range of 75 to 80 °C. Also, in the data set on Phakopsora pachyrhizi, the pest or weed control at 200 ppm was not below 80%. For the same molecule, the inhibition of growth at 20 ppm in data set [2] is not below 80%. In data set [3], the pest or weed control at 200 ppm was not below 80%.

Turning to `O=C1CCON1Cc1ccc(-c2noc(C(F)(F)F)n2)c(F)c1` [Compound A-68, 2-[[3-fluoro-4-[5-(trifluoromethyl)-1,2,4-oxadiazol-3-yl]phenyl]methyl]isoxazolidin-3-one], the melting point is 86 to 89 °C. This molecule also displayed a pest or weed control at 200 ppm in data set [1] not below 80%. Further, the pest or weed control at 200 ppm with Phakopsora pachyrhizi is not below 80%. In data set [2], this molecule had an inhibition of growth at 20 ppm not below 80%. This molecule also showed a pest or weed control at 200 ppm in data set [3] not below 80%.

As for `O=S1(=O)CCCN1Cc1ccc(-c2noc(C(F)(F)F)n2)cc1` [Compound B-1, 2-[[4-[5-(trifluoromethyl)-1,2,4-oxadiazol-3-yl]phenyl]methyl]-1,2-thiazolidine 1,1-dioxide], the melting point fell in the range of 69 to 73 °C. Also, the pest or weed control at 200 ppm in data set [1] is not below 80%. The same molecule gave a pest or weed control at 200 ppm with Phakopsora pachyrhizi not below 80%. The molecule further yielded an inhibition of growth at 20 ppm in data set [2] not below 80%. The pest or weed control at 200 ppm in data set [3] is not below 80%.

`O=C1CCCN1c1ccc(-c2noc(C(F)(F)F)n2)cc1` [Compound C-1, 1-[4-[5-(trifluoromethyl)-1,2,4-oxadiazol-3-yl]phenyl]pyrrolidin-2-one] had a melting point of 151 to 153 °C. The molecule also yielded a pest or weed control at 200 ppm in data set [1] not below 80%. In the data set on Phakopsora pachyrhizi, this molecule showed a pest or weed control at 200 ppm not below 80%. In addition, in data set [2], the inhibition of growth at 20 ppm is not below 80%. The molecule further returned a pest or weed control at 200 ppm in data set [3] not below 80%.

As a reminder, the pest or weed control is the degree to which the test organism was suppressed or injured, in per cent. Read a low pest or weed control as weak suppression. In general, melting point refers to the temperature of the solid-liquid transition. By inhibition of growth is commonly meant how much of the control response was suppressed. Lower therefore signals a response near the control.

These data come from patent US10640497B2, “Microbiocidal oxadiazole derivatives” (SYNGENTA PARTICIPATIONS AG, priority 2015, dated 2020).
